Test results from PubChem BioAssay (NCI).
Several values for one entry are separate records, joined by “and”; a condition that tells them apart may be missing. Identical values can stand only once.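 Assay format: 96-well plates, 48-hour exposure. GI50: concentration for 50% inhibition of growth. Definition used: TGI = concentration required for complete inhibition of growth.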

Tests used:
Assay in all cases: NCI-60 cell line screen, 48 h
[1] = test system: DU-145 prostate
[2] = test system: HS 578T breast
[3] = test system: LOX IMVI melanoma
[4] = test system: M14 melanoma
[5] = test system: MDA-MB-435
[6] = test system: MOLT-4 leukemia
[7] = test system: OVCAR-8 ovarian
[8] = test system: SF-539 CNS
[9] = test system: SK-MEL-28 melanoma
[10] = test system: U251 CNS

Row | Compound | TGI [1] | TGI [2] | TGI [3] | TGI [4] | TGI [5] | TGI [6] | TGI [7] | TGI [8] | TGI [9] | TGI [10] | GI50 [1] | GI50 [2] | GI50 [3] | GI50 [4] | GI50 [5] | GI50 [6] | GI50 [7] | GI50 [8] | GI50 [9] | GI50 [10]
1 | OCC(CCc1c[nH]c2ccccc12)c1c[nH]c2ccccc12 (centres undefined) | 32.7 µM | 48.6 µM | 27.3 µM | 28.6 µM | 34.3 µM | 52.1 µM | 46.6 µM | 33.6 µM | 36.6 µM | 30.4 µM |  |  |  |  |  |  |  |  |  | 
2 | NS(=O)(=O)c1ccc(-n2ncc3c(Nc4ccccc4)ncnc32)cc1 | > 100 µM | > 100 µM | 70 µM | > 100 µM | > 100 µM | 61.4 µM | 65 µM | > 100 µM | > 100 µM | > 100 µM | 35.6 µM | 33.8 µM | 14.9 µM | 32.8 µM | 46.2 µM | 14.5 µM | 18.3 µM | 36.2 µM | 31.6 µM | 26.9 µM
3 | O=C(N/N=C/c1ccc(Cl)cc1Cl)c1ccc2nc(-c3ccc(Cl)cc3)[nH]c2c1 | 3.44 µM | 5.27 µM | 2.94 µM | 3.84 µM | 3.35 µM | 4.81 µM | 4.74 µM | 3.17 µM | 3.04 µM | 4.18 µM | 1.76 µM | 2.28 µM | 1.57 µM | 1.65 µM | 1.73 µM | 1.55 µM | 2.11 µM | 1.7 µM | 1.58 µM | 2.1 µM
4 | C[C@@H](COCCC(=O)N1CCN(c2ncc(C(F)(F)F)cn2)CC1)Nc1cn[nH]c(=O)c1C(F)(F)F | > 100 µM | > 100 µM | > 100 µM | > 100 µM | > 100 µM | > 100 µM | > 100 µM | > 100 µM | > 100 µM | > 100 µM | 37.6 µM | 50.7 µM | 27.9 µM | 32.9 µM | > 100 µM | 22.9 µM | 32.7 µM | 16.4 µM | > 100 µM | 29.3 µM
5 | Cc1ccc2nc(-c3ccc(N)c4ccccc34)[nH]c2c1 | 24.8 µM | 32.4 µM | 15.2 µM | 0.427 µM | 0.444 µM | 17.3 µM | 16.9 µM | 1.64 µM | > 54.1 µM | 22.5 µM | 0.437 µM | 0.263 µM | 0.0801 µM | 0.054 µM | 0.187 µM | 1.36 µM | 1.31 µM | 0.0607 µM | 3.38 µM | 0.0619 µM
6 | Cc1nc2c(N3CCCC3)nc(N3CCNCC3)nc2nc1NCc1ccccc1 | 19.4 µM and 21.3 µM | 17 µM and 18.7 µM | 16.8 µM and 3.19 µM | 9.12 µM and 3.53 µM | 10 µM and 6.41 µM | 15.1 µM and > 21.2 µM | 11 µM and 14.5 µM | 13.4 µM and 7 µM | 3.75 µM | 11.7 µM and 13 µM | 5.35 µM | 7.4 µM | 2.47 µM | 2.64 µM | 4.36 µM | 3.34 µM | 5.73 µM | 6.21 µM |  | 4.27 µM
7 | CCC1(NC(=O)c2cc(F)c(F)c(F)c2F)C(=O)NC(=O)N(C(C)C)C1=O (centres undefined) | > 100 µM | 37.2 µM | 54.5 µM | 34.6 µM | 36.2 µM | 78.8 µM | > 100 µM | > 100 µM | 45 µM | 91.3 µM | 33.7 µM | 12 µM | 16.7 µM | 10.3 µM | 15.8 µM | 22.6 µM | 34.6 µM | > 100 µM | 14.5 µM | 25.6 µM
8 | COc1ccc2c(c1)c(-c1ccc(-c3cn(C)c4ccc(OC)cc34)[nH]1)cn2C | 31.1 µM | 4.24 µM | 4.39 µM | 20.3 µM | 20.6 µM | 29.7 µM | 12.2 µM | 3.96 µM | 12.4 µM | 3.52 µM | 10.6 µM | 1.36 µM | 2.03 µM | 3.97 µM | 4.92 µM | 4.13 µM | 2.71 µM | 1.92 µM | 3.18 µM | 1.4 µM
9 | COc1cccc(N=N/C(=N\NC(=O)c2cc(Br)ccc2O)c2ccc(N(CCC#N)CCC#N)cc2OC)c1 | > 150 µg/mL | > 150 µg/mL | 15 µg/mL | > 150 µg/mL | > 150 µg/mL | > 150 µg/mL | > 150 µg/mL | > 150 µg/mL | > 150 µg/mL | > 150 µg/mL | 87.2 µg/mL | 48.9 µg/mL | 15 µg/mL | 57.3 µg/mL | 67.8 µg/mL | 54.7 µg/mL | 41.6 µg/mL | 42.7 µg/mL | 62.7 µg/mL | 34.4 µg/mL
10 | COc1cc(NC(=O)NCc2ccco2)ccc1-c1ccc(NC(=O)NCc2ccco2)cc1OC | > 100 µM | 6.86 µM | > 100 µM | 38.2 µM | > 100 µM | > 100 µM | 11.7 µM | 2.62 µM | 5.33 µM | 4.3 µM | 3.01 µM | 1.51 µM | 1.28 µM | 3.2 µM | 4.14 µM | 20.3 µM | 1.88 µM | 0.663 µM | 1.5 µM | 0.957 µM
11 | COc1ccc(-c2cc(-c3cccc(NS(C)(=O)=O)c3)nc(N)c2C#N)cc1 | 8.82 µM | 2.39 µM | > 37.5 µM | 10.7 µM | 0.121 µM | > 100 µM | 34.6 µM | 0.491 µM | 47.2 µM | 19.3 µM | 0.164 µM | 0.0468 µM | 0.0743 µM | 0.0808 µM | 0.0256 µM | 0.235 µM | 0.222 µM | 0.0478 µM | 0.18 µM | 0.0577 µM
12 | Clc1ccc(CNc2nccc(-c3cnn4ncccc34)n2)cc1 | > 25 µM | > 23.5 µM | > 25 µM | > 17 µM | 20.6 µM | > 25 µM | > 25 µM | 15.6 µM | 17.5 µM | > 25 µM | 8.73 µM | 7.78 µM | 6.12 µM | 7.09 µM | 6.3 µM | 8.16 µM | 6.63 µM | 6.25 µM | 5.64 µM | 6.73 µM
